Results taken from patent US8592359B2 (priority 2010, dated 2013).

Test system: amylase Stainzyme® 12,0 1
Assay: Residual amylolytic activity after storage in a liquid washing agent (starch / dinitrosalicylic acid)
Format: biochemical
Conditions: 1 wt % stabilizer, 4 weeks at 30° C., initial activity 100%
From the text: A liquid washing agent of the following composition serves as a baseline washing agent formulation (all indications in percent by weight): 0.3 to 0.5% xanthan, 0.2 to 0.4% antifoaming agent, 6 to 7% glycerol, 0.3 to 0.5% ethanol, 4 to 7% FAEOS (fatty alcohol ether sulfate), 24 to 28% nonionic surfactants, 1 to 2% sodium citrate (dihydrate), 2 to 4% soda, 14 to 16% coconut fatty acids, 0.5% HEDP (1-hydroxyethane-(1,1-diphosphonic acid)), 0 to 0.4% PVP (polyvinylpyrrolidone), 0 to 0.05% optical brightener, 0 to 0.001% dye, remainder demineralized water.
The monosaccharide glycerate glucosyl glycerate was incorporated, as the component stabilizing the hydrolytic enzyme, into the baseline washing agent formulation according to Example 2 (see Table 2, indications in this regard in wt %). […] The amylase used was the Stainzyme® 12,0 1 product of the company Novozymes A/S. The amylase was used in the washing agent either alone or in combination with the protease of Example 2 (utilization quantity: 1.0 wt % amylase and/or 1.0 wt % protease, respectively active substance).
After storage, the respective residual amylolytic activity was determined by incubating the samples under defined reaction conditions (tris-maleate buffer, pH 6.5, 50° C., 15 min) with 0.67% starch (FLUKA no. 85642, from potatoes, soluble, pretreated per Zulkowsky (treated with glycerol at 190° C.)). […]

OB(O)O [boric acid]
residual amylolytic activity after storage (with protease (1.0 wt %)): 92%
residual amylolytic activity after storage (without protease): 97%
